Data: patent US20240052053A1, “ENHANCEMENT OF ANTIBODY-DEPENDENT CELL-MEDIATED CYTOTOXICITY (ADCC)” (IO Biotech ApS, priority 2017, published 2024)
Entries after “also recorded” stand apart in the source; their conditions may differ.

Tested on: U266 myeloma cells
Experiment: 51Cr-release cytotoxic assay with PD-L1-specific CTLs
Assay type: cell-based, human
Details: U266 cells pretreated with IFN-γ
Description: The cytotoxicity assay was performed as in Example 1. Briefly, HLA-A2-positive CTLs that were specific to PD-L1 were thawed, rested over-night and used as effector cells against 51 Cr-labeled HLA-A2-positive U266 myeloma cells in different effector to target (E:T)-cell ratios.

For “IFN-γ: Interferon gamma, a major inducer of PD-L1 expression, used to pretreat U266 cells”, the “killing of U266 cells by PD-L1 specific CTLs after pretreatment” value was “more susceptible to being killed; also recorded: tendency towards increased killing”.
